# Experimental data as given in patent US8778985B2, “Inhibiting amyloid-beta peptide/rage interaction at the blood-brain barrier” (The University of Rochester, priority 2006, dated 2014).
# Tested on: APPsw+/− mice
# Assay: Human Aβ40 and Aβ42 levels in hippocampus and cortex by ELISA, chronic treatment of APPsw+/− mice
# Assay type: in vivo
# Settings: 1 mg/kg per day i.p. for two months
# Description: A-B, Aβ40 and Aβ42 levels in hippocampus (A) cortex (B) of APPsw^+/− mice treated with vehicle (filled square) or FPS2 (filled triangle). FPS2 (1 mg/kg per day) was administered intraperitoneally to mice for two months beginning at the age of 8 months. Values are means±s.e.m, n=5-6 per group.
# In the chronic-treated mice, Aβ40 and Aβ42 levels in the hippocampus were reduced by about 85% and 90%, respectively, in the FPS2-treated mice compared to vehicle (FIG. 6A). Similarly, Aβ40 and Aβ42 levels in the cortex were reduced by about 70% and 80%, respectively (FIG. 6B).
# Compounds were synthesized in parallel using semiautomated chemical reactions. Five commercially-available aromatic aldehydes were condensed in reductive amination reactions with five hydrophobic amines to form 25 secondary amines. Parallel acylation of these 25 secondary amines with five aromatic acyl chlorides provided the final 125-compound library of tertiary amides. The identity of compounds was verified by mass spectrometry (FIG. 9). Purity was assessed by reverse-phase gradient HPLC. Library members isolated with purity <95% were subjected to preparative HPLC purification prior to assay. • Animals. APPsw^+/− (Tg2576) mice were from Taconic Farms (Germantown, N.Y.). Mice were housed under standard conditions (12 hour light/dark cycle starting at 07:00 AM; 21±2° C.; 55±10% humidity) in solid-bottom cages on woodchip bedding. Mice were anesthetized by intraperitoneal injection with urethane (750 mg/kg) and α-chloralose (50 mg/kg). All procedures on mice were performed according to the NIH guidelines, which were approved by the University of Rochester's Committee on Animal Resources. • FPS2 chronic treatment of APPsw^+/− mice. APPsw^+/− mice (n=5-6 per group) were treated intraperitoneally with FPS2 (1 mg/kg per day) or saline for two months beginning at the age of 8 months. After two months of treatment, (i) the cerebral blood flow response to brain activation (whisker stimulation) was measured and (ii) behavioral tests including operant learning, novel object location (NOL), and novel object recognition (NOR) were performed. After these functional tests, the mice were sacrificed and their brains analyzed for Aβ40, Aβ42, and amyloid levels. • CBF response to brain activation. The CBF response to vibrissal stimulation in anesthetized APPsw^+/− mice was measured by using laser-doppler flowmetry (Transonic Systems, BLF 21 D). The tip of the laser-doppler probe was stereotaxically placed 0.5 mm above the dura of the cranial window. The right vibrissae were cut to about 5 mm and stimulated by gentle stroking at 3-4 Hz, for 1 min with a cotton-tip applicator. […] The time exploring the novel and familiar objects was scored by hand to provide discrimination. • Human Aβ40 and Aβ42. […]
smiles,measurement,value
"CC(CC(=O)NCCCN(C(=O)c1cc([N+](=O)[O-])cc([N+](=O)[O-])c1)c1ccccc1)CC(C)(C)C (stereo not shown) [FPS2, 3,5-dinitro-N-phenyl-N-[3-[(3,5,5-trimethyl-1-oxohexyl)amino]propyl]-(9Cl)-benzamide]",reduction of Aβ40 level in the cortex compared to vehicle,about 70%
same,reduction of Aβ40 level in the hippocampus compared to vehicle,about 85%
same,reduction of Aβ42 level in the cortex compared to vehicle,~80%
same,reduction of Aβ42 level in the hippocampus compared to vehicle,~90%
